The source made the active and inactive calls. No rule for the calls is given here.
Test system: rodent carcinogenicity bioassays, tumor incidence
Test: CCRIS carcinogenicity studies
Method in brief: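 NCI-built, expert-reviewed records of carcinogenicity and related test outcomes (mutagenicity, tumor promotion/inhibition) compiled from published and report sources, historical span 1985-2011, not updated.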

ClC(Cl)(Cl)c1ccccc1
carcinogen call (Species: MOUSE, Strain/Sex: ICR/FEMALE, Route: GAVAGE, Dose: 0, 0.0315, 0.125, 0.5, 2 µL IN STERILIZED SESAME OIL 2/WK FOR 25 WK (STUDY DURATION: 18 MO), Dose: 0, 0.0315, 0.125, 0.5, 2 µL IN STERILIZED SESAME OIL 2/WK FOR 25 WK (STUDY DURATION: 18 MO), Tumor Site: Type of Lesion: FORESTOMACH: SQUAMOUS CELL CARCINOMA, LUNG: ADENOCARCINOMA OR ADENOMA, HEMATOPOIETIC SYSTEM: TUMORS, Tumor Site: Type of Lesion: FORESTOMACH: SQUAMOUS CELL CARCINOMA, LUNG: ADENOCARCINOMA OR ADENOMA, HEMATOPOIETIC SYSTEM: TUMORS): active; positive

COC(=O)N/N=C/c1c[n+]([O-])c2ccccc2[n+]1[O-]
carcinogen call (Species: RAT, Strain/Sex: WISTAR/FEMALE, Route: ORAL, Dose: 0, 50, 100, 250, 500 PPM IN DIET FOR 12 MO (STUDY DURATION: 12 MO), Dose: 0, 50, 100, 250, 500 PPM IN DIET FOR 12 MO (STUDY DURATION: 12 MO), Tumor Site: Type of Lesion: LIVER: HEPATOCELLULAR CARCINOMA): active; positive
carcinogen call (Species: RAT, Strain/Sex: WISTAR/MALE, Route: ORAL, Dose: 0, 50, 100, 250, 500 PPM IN DIET FOR 12 MO (STUDY DURATION: 12 MO), Dose: 0, 50, 100, 250, 500 PPM IN DIET FOR 12 MO (STUDY DURATION: 12 MO), Tumor Site: Type of Lesion: LIVER: HEPATOCELLULAR CARCINOMA): active; positive

CCCCCCCCCCCCCC(=O)ON(C(C)=O)c1ccc2c(c1)Cc1cc(I)ccc1-2
carcinogen call (Species: RAT, Strain/Sex: F344/MALE, Route: SUBCUTANEOUS, Dose: 10.6 UMOL IN 0.2 ML DMSO-TRIOCTANOIN 1/WK FOR 6 WK, Tumor Site: Type of Lesion: INJECTION SITE: FIBROSARCOMA OR FIBROMYOSARCOMA OR FIBROLIPOSARCOMA): active; positive

CCCC(OC(C)=O)N(CCCC(=O)OC)N=O (stereo not drawn)
carcinogen call (Species: RAT, Strain/Sex: F344/MALE,FEMALE, Route: SUBCUTANEOUS, Dose: 38 UMOL/KG IN OLIVE OIL 1/WK FOR 10 WK, Tumor Site: Type of Lesion: INJECTION SITE: MALIGNANT FIBROUS HISTIOCYTOMA): active; positive

Nc1ccc(N=Nc2ccccc2)c(N)c1
carcinogen call (Species: MOUSE, Route: ORAL, Tumor Site: Type of Lesion: HEMATOPOIETIC SYSTEM (LEUKEMIA), LYMPHATIC SYSTEM: LYMPHOMA, LIVER, Tumor Site: Type of Lesion: HEMATOPOIETIC SYSTEM (LEUKEMIA), LYMPHATIC SYSTEM: LYMPHOMA, LIVER): active; positive

COCc1cnc(C2=NC(C)(C(C)C)C(=O)N2)c(C(=O)O)c1 (stereo not drawn)
carcinogen call (Species: Mouse, Strain/Sex: CD-1/Female (55/Group), Route: Oral, Dose: 0, 96, 664, 1348 mg/kg/day of 97.1% imazamox in diet for at least 18 mo, study duration at least 18 mo, Dose: 0, 96, 664, 1348 mg/kg/day of 97.1% imazamox in diet for at least 18 mo, study duration at least 18 mo): inactive; negative
carcinogen call (Species: Mouse, Strain/Sex: CD-1/Male (55/Group), Route: Oral, Dose: 0, 73, 535, 1053 mg/kg/day of 97.1% imazamox in diet for at least 18 mo, study duration at least 18 mo, Dose: 0, 73, 535, 1053 mg/kg/day of 97.1% imazamox in diet for at least 18 mo, study duration at least 18 mo): inactive; negative
carcinogen call (Species: Rat, Strain/Sex: Sprague-Dawley/Female (65/Group), Route: Oral, Dose: 0, 63, 626, 1284 mg/kg/day of 97.1% imazamox in diet for 24 mo, study duration 24 mo, Dose: 0, 63, 626, 1284 mg/kg/day of 97.1% imazamox in diet for 24 mo, study duration 24 mo): inactive; negative
carcinogen call (Species: Rat, Strain/Sex: Sprague-Dawley/Male (65/Group), Route: Oral, Dose: 0, 52, 528, 1068 mg/kg/day of 97.1% imazamox in diet for 24 mo, study duration 24 mo, Dose: 0, 52, 528, 1068 mg/kg/day of 97.1% imazamox in diet for 24 mo, study duration 24 mo): inactive; negative

CC(Cl)CCl (stereo not drawn)
carcinogen call (Species: MOUSE, Strain/Sex: B6C3F1/FEMALE, Route: GAVAGE, Dose: 0, 125, 250 MG/KG IN CORN OIL 5 D/WK FOR 103 WK (STUDY DURATION: 104 WK), Dose: 0, 125, 250 MG/KG IN CORN OIL 5 D/WK FOR 103 WK (STUDY DURATION: 104 WK), Tumor Site: Type of Lesion: LIVER: ADENOMA, ADENOMA OR CARCINOMA): active; positive
carcinogen call (Species: MOUSE, Strain/Sex: B6C3F1/MALE, Route: GAVAGE, Dose: 0, 125, 250 MG/KG IN CORN OIL 5 D/WK FOR 103 WK (STUDY DURATION: 104 WK), Dose: 0, 125, 250 MG/KG IN CORN OIL 5 D/WK FOR 103 WK (STUDY DURATION: 104 WK), Tumor Site: Type of Lesion: LIVER: ADENOMA, ADENOMA OR CARCINOMA): active; positive
carcinogen call (Species: RAT, Strain/Sex: F344/FEMALE, Route: GAVAGE, Dose: 0, 125, 150 MG/KG IN CORN OIL 5 D/WK FOR 103 WK (STUDY DURATION: 104 WK), Dose: 0, 125, 150 MG/KG IN CORN OIL 5 D/WK FOR 103 WK (STUDY DURATION: 104 WK), Tumor Site: Type of Lesion: MAMMARY GLAND: ADENOCARCINOMA): equivocal
carcinogen call (Species: RAT, Strain/Sex: F344/MALE, Route: GAVAGE, Dose: 0, 62, 125 MG/KG IN CORN OIL 5 D/WK FOR 103 WK (STUDY DURATION: 104 WK), Dose: 0, 62, 125 MG/KG IN CORN OIL 5 D/WK FOR 103 WK (STUDY DURATION: 104 WK)): inactive; negative

C=CF
carcinogen call (Species: MOUSE, Strain/Sex: SWISS/FEMALE, Route: INHALATION, Dose: 0, 25, 250, 2500 PPM 6 HR/D 5 D/WK FOR 18 MO (STUDY DURATION: 18 MO), Dose: 0, 25, 250, 2500 PPM 6 HR/D 5 D/WK FOR 18 MO (STUDY DURATION: 18 MO), Tumor Site: Type of Lesion: LUNG: ADENOMA, LIVER: HEMANGIOSARCOMA, MAMMARY GLAND: TUMOR, Tumor Site: Type of Lesion: LUNG: ADENOMA, LIVER: HEMANGIOSARCOMA, MAMMARY GLAND: TUMOR): active; positive
carcinogen call (Species: MOUSE, Strain/Sex: SWISS/MALE, Route: INHALATION, Dose: 0, 25, 250, 2500 PPM 6 HR/D 5 D/WK FOR 18 MO (STUDY DURATION: 18 MO), Dose: 0, 25, 250, 2500 PPM 6 HR/D 5 D/WK FOR 18 MO (STUDY DURATION: 18 MO), Tumor Site: Type of Lesion: LUNG: ADENOMA, LIVER: HEMANGIOSARCOMA): active; positive
carcinogen call (Species: RAT, Strain/Sex: SPRAGUE-DAWLEY/FEMALE, Route: INHALATION, Dose: 0, 25, 250, 2500 PPM 6 HR/D 5 D/WK FOR 2 YR (STUDY DURATION: 2 YR), Dose: 0, 25, 250, 2500 PPM 6 HR/D 5 D/WK FOR 2 YR (STUDY DURATION: 2 YR), Tumor Site: Type of Lesion: LIVER: HEMANGIOSARCOMA, ADENOMA OR CARCINOMA, ZYMBAL'S GLAND: TUMOR): active; positive
carcinogen call (Species: RAT, Strain/Sex: SPRAGUE-DAWLEY/MALE, Route: INHALATION, Dose: 0, 25, 250, 2500 PPM 6 HR/D 5 D/WK FOR 2 YR (STUDY DURATION: 2 YR), Dose: 0, 25, 250, 2500 PPM 6 HR/D 5 D/WK FOR 2 YR (STUDY DURATION: 2 YR), Tumor Site: Type of Lesion: LIVER: HEMANGIOSARCOMA, ZYMBAL'S GLAND: TUMOR): active; positive
